# Results reported in patent US8420677B2, “Use of 3,3′-diindolylmethane” (priority 2008, dated 2013).
# Tested on: D257A mice
# Experiment: Auditory brainstem response (ABR) hearing function test in D257A mice fed the compounds
# Format: in vivo
# Excerpt: The test system was D257A−/− (D257A) mice that express a proofreading-deficient version of the mitochondrial DNA polymerase γ (POLG). These mice display features of accelerated aging including age related hearing loss (presbycusis). Hearing loss can be monitored by an elevation in auditory-evoked brainstem response (Kujoth et al., Science 309, 481-484, 2005).
# Heterozygous D257A (−1+) mice were bred to generate homozogous D257A (−/−) mice, denoted D257A hereafter. Animals were identified with specific numbering and ear clippings. D257A mice were placed in various dietary regimens following PCR based genotyping and weaning at 3 weeks of age. Mice received a diet based on AIN-93M maintenance purified diet (TestDiet, Richmond, USA), with neither no supplementation (Control group), or supplementation with DIM (40 mg/kg, BioResponse LLC Boulder, Colo.), (−)-epigallocatechin gallate, or (EGCG) (300 mg/kg, DSM Nutritional Products, Switzerland).
# Hearing function was tested in 9 month-old D257A mice receiving the various compounds. Auditory brainstem responses (ABRs) were measured with a tone burst stimulus (8, 16 and 32 kHz) using an ABR recording system (Intelligent Hearing System, Miami Fla.). Animals were anesthetized with a mixture of xylazine hydrochloride (10 mg/kg, i.m.) and ketamine hydrochloride (40 mg/kg, i.m.), and needle electrodes were placed subcutaneously at the vertex (active electrode), beneath the pinna of the measured ear (reference electrode), and beneath the opposite ear (ground). The stimulus duration, presentation rate, and rise/fall time was 3 ms, 19.3/s, and 1 ms respectively. Responses of 1024 sweeps were averaged at each intensity level (5 dB steps) to access the hearing threshold. The hearing threshold was defined as the lowest intensity level at which a clear reproducible waveform was visible in the trace. Means of ABR thresholds were compared at 8, 16 and 32 kHz.
smiles,measurement,setting,value
"c1ccc2c(Cc3c[nH]c4ccccc34)c[nH]c2c1 [DIM, 3,3′-diindolylmethane]",hearing threshold (auditory-evoked brain stem response threshold),"8 kHz, 9 month-old D257A mice, DIM 40 mg/kg in diet, control approximately 40 dB",approximately 10 dB
same,deaf mice (no auditory-evoked brainstem response),"8 kHz, 9 month-old D257A mice, diet supplementation from weaning (DIM 40 mg/kg, EGCG 300 mg/kg), control 3 out of 8 deaf",no deaf mice
same,percentage of deaf mice,"32 kH, 9 month-old D257A mice, compared to the control group and the other tested compounds",significantly lower
same,effect on age related hearing loss,"supplementation from early age on, D257A mice",protective effect
